Numbered stars: 1 amine (or outer) side, 2 acyl side, 3 side chain; on linkers, the order of the positions; unused ones are H or OH. Square brackets hold non-standard residues; d marks the D form. Side chains are listed from the residue outwards. Peptide text beside a SMILES is read from it. * marks the point of attachment. C18 diacid = O=C(O)CCCCCCCCCCCCCCCCC(=O)*; αMePhe(2-F) = C[C@](N)(Cc1ccccc1F)C(=O)O; γGlu = O=C(O)[C@H](CCC(=O)[*:2])N[*:1]; αMeY = C[C@](N)(Cc1ccc(O)cc1)C(=O)O; αMeL = CC(C)C[C@](C)(N)C(=O)O; Orn = NCCC[C@H](N)C(=O)O; AEEA = NCCOCCOCC(=O)O; Aib = CC(C)(N)C(=O)O
How the values were obtained:
human Gcg receptor = biological target: T1, human Gcg receptor (Homo sapiens, UniProt P47871); test: [125I]-Glucagon binding (SPA), human Gcg receptor; settings: read-out: hGLcgR Ki, nM (SEM, n)
T1 construct: expressed in transfected cells; crude membranes
Method in brief: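 Crude membranes from cells expressing the receptor, prepared by hypotonic lysis in 50 mM Tris HCl pH 7.5 with protease inhibitors, homogenization and differential centrifugation, were used in a WGA-bead SPA. Binding buffer: 25 mM HEPES pH 7.4, 2.5 mM CaCl2, 1 mM MgCl2, bacitracin, Tween-20.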

[1] = biological target: T2, gastric inhibitory peptide receptor (GIPR) (Homo sapiens, UniProt P48546); test: cAMP pharmacological functional assay in presence of casein, hGIPR; type: cell-based; settings: HEK293 cells expressing hGIPR, 0.1% Casein, geometric mean; read-out: hGIPR cAMP Rel EC50 nM (SEM, n)
T2 sequence (P48546 22-466): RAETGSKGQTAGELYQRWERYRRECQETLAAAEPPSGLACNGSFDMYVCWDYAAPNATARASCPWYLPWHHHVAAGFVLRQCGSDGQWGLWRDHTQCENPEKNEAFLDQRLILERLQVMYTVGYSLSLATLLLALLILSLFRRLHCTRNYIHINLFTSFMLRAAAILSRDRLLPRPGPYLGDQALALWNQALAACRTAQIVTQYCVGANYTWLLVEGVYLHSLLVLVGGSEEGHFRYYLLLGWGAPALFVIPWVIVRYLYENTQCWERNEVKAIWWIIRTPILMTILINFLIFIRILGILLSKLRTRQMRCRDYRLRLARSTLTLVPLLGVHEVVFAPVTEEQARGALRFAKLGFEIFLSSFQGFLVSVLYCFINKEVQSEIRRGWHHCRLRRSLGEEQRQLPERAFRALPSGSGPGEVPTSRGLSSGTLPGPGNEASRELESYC

human GIP receptor = biological target: T3, human GIP receptor (Homo sapiens, UniProt P48546); test: [125I]-GIP binding (SPA), human GIP receptor; settings: read-out: hGIPR Ki, nM (SEM, n)
T3 construct: expressed in transfected cells; crude membranes
T3 sequence (P48546 22-466): T2 sequence (P48546 22-466)

[2] = biological target: human GLP-1 receptor (GLP-1R) (Homo sapiens, UniProt P43220); test: cAMP pharmacological functional assay in presence of casein, hGLP-1R; type: cell-based; settings: HEK293 cells expressing hGLP-1R, 0.1% Casein, geometric mean; read-out: hGLP1R cAMP Rel EC50 nM (SEM, n)
human GLP-1R = human GLP-1R (Homo sapiens, UniProt P43220); test: [125I]-GLP-1 binding (SPA), human GLP-1 receptor; parameters: expressed in transfected cells; crude membranes; settings: read-out: hGLP1R Ki, (nM) (SEM, n)
Method in brief: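 Ki values are geometric means with SEM over independent replicates on different days, derived from IC50s fitted by four-parameter nonlinear regression. The assay used crude cell membranes in HEPES buffer, pH 7.4, containing CaCl2, MgCl2, bacitracin and TWEEN-20.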

Sequence of human GLP-1 receptor (GLP-1R) (P43220 24-463): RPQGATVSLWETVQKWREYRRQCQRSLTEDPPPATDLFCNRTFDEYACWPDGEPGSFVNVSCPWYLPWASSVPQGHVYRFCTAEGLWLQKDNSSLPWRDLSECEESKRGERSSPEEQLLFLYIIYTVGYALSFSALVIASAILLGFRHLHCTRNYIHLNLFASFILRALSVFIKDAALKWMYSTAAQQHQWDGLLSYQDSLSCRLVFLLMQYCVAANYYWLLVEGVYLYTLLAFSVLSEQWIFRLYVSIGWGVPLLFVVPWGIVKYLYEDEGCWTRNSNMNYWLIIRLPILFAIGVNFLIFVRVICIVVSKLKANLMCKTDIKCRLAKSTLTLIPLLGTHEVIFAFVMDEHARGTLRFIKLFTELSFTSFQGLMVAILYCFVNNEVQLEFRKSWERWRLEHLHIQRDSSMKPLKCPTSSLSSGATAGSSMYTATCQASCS
Sequence of human GLP-1R (P43220 24-463): as above
T1 sequence (P47871 26-477): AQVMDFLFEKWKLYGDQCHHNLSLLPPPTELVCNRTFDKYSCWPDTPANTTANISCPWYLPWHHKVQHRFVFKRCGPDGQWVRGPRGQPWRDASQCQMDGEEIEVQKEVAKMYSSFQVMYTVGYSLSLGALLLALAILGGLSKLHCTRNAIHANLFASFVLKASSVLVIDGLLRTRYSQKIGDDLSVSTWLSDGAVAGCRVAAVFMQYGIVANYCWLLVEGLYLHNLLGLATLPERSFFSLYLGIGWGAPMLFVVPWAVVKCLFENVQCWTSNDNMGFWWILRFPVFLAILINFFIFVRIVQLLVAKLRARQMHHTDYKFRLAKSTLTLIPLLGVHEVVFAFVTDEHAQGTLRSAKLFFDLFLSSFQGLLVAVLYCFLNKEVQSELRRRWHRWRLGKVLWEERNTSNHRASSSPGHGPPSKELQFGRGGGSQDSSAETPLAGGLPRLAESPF

Compound `CC[C@H](C)[C@H](NC(=O)[C@H](CC(C)C)NC(=O)[C@](C)(Cc1ccc(O)cc1)NC(=O)[C@@H](CCC(=O)O)NC(=O)[C@@H](NC(=O)[C@H](Cc1ccccc1)NC(=O)[C@H](C)NC(=O)C(C)(C)NC(=O)[C@H](CCC(N)=O)NC(=O)[C@H](C)NC(=O)[C@H](CCCCNC(=O)COCCOCCNC(=O)COCCOCCNC(=O)CC[C@H](NC(=O)CCCCCCCCCCCCCCCCC(=O)O)C(=O)O)NC(=O)[C@H](CCCN)NC(=O)[C@H](CC(=O)O)NC(=O)[C@H](CC(C)C)NC(=O)[C@](C)(CC(C)C)NC(=O)[C@@H](NC(=O)[C@H](CO)NC(=O)[C@@H](NC(=O)[C@H](CC(=O)O)NC(=O)[C@H](CO)NC(=O)[C@@H](NC(=O)[C@](C)(Cc1ccccc1F)NC(=O)[C@@H](NC(=O)CNC(=O)[C@H](CCC(=O)O)NC(=O)C(C)(C)NC(=O)[C@@H](N)Cc1ccc(O)cc1)[C@@H](C)O)[C@@H](C)O)C(C)C)[C@@H](C)CC)[C@@H](C)CC)C(=O)N[C@@H](CCC(=O)O)C(=O)NCC(=O)NCC(=O)N1CCC[C@H]1C(=O)N[C@@H](CO)C(=O)N[C@@H](CO)C(=O)NCC(=O)N[C@@H](C)C(=O)N1CCC[C@H]1C(=O)N1CCC[C@H]1C(=O)N1CCC[C@H]1C(=O)N[C@@H](CO)C(N)=O` [Example 242] (H-Y[Aib]EGT[αMePhe(2-F)]TSDVSI[αMeL]LD[Orn]K([AEEA-AEEA-γGlu-C18 diacid])AQ[Aib]AFI[dE][αMeY]LIEGGPSSGAPPPS-NH2) has a Ki (human Gcg receptor) of 95.9 nM, an EC50 [1] of 0.0333 nM and a Ki (human GIP receptor) of 0.0604 nM. For the same compound, the EC50 [2] was 0.0164 nM and the Ki (human GLP-1R) was 0.853 nM.
For `CC[C@H](C)[C@H](NC(=O)[C@H](CC(C)C)NC(=O)[C@](C)(Cc1ccc(O)cc1)NC(=O)[C@@H](CCC(=O)O)NC(=O)[C@@H](NC(=O)[C@H](Cc1ccccc1)NC(=O)[C@@H](NC(=O)C(C)(C)NC(=O)[C@H](CCC(N)=O)NC(=O)[C@H](C)NC(=O)[C@H](CCCCNC(=O)COCCOCCNC(=O)COCCOCCNC(=O)CC[C@H](NC(=O)CCCCCCCCCCCCCCCCC(=O)O)C(=O)O)NC(=O)[C@H](CCCN)NC(=O)[C@H](CC(=O)O)NC(=O)[C@H](CC(C)C)NC(=O)[C@](C)(CC(C)C)NC(=O)[C@@H](NC(=O)[C@H](CO)NC(=O)[C@H](CC(C)C)NC(=O)[C@H](CC(=O)O)NC(=O)[C@H](CO)NC(=O)[C@@H](NC(=O)[C@](C)(Cc1ccccc1F)NC(=O)[C@@H](NC(=O)CNC(=O)[C@H](CCC(=O)O)NC(=O)C(C)(C)NC(=O)[C@@H](N)Cc1ccc(O)cc1)[C@@H](C)O)[C@@H](C)O)[C@@H](C)CC)[C@@H](C)O)[C@@H](C)CC)C(=O)N[C@@H](CCC(=O)O)C(=O)NCC(=O)NCC(=O)N1CCC[C@H]1C(=O)N[C@@H](CO)C(=O)N[C@@H](CO)C(=O)NCC(=O)N[C@@H](C)C(=O)N1CCC[C@H]1C(=O)N1CCC[C@H]1C(=O)N1CCC[C@H]1C(=O)N[C@@H](CO)C(N)=O` [Example 243] (H-Y[Aib]EGT[αMePhe(2-F)]TSDLSI[αMeL]LD[Orn]K([AEEA-AEEA-γGlu-C18 diacid])AQ[Aib]TFI[dE][αMeY]LIEGGPSSGAPPPS-NH2), the Ki (human Gcg receptor) was 145 nM, the EC50 [1] was 0.0214 nM and the Ki (human GIP receptor) was 0.0325 nM. For the same compound, the EC50 [2] was 0.0265 nM and the Ki (human GLP-1R) was 0.67 nM.
For `CC[C@H](C)[C@H](NC(=O)[C@H](CC(C)C)NC(=O)[C@](C)(Cc1ccc(O)cc1)NC(=O)[C@@H](CCC(=O)O)NC(=O)[C@@H](NC(=O)[C@H](Cc1ccccc1)NC(=O)[C@H](C)NC(=O)C(C)(C)NC(=O)[C@H](CCC(N)=O)NC(=O)[C@H](C)NC(=O)[C@H](CCCCNC(=O)COCCOCCNC(=O)COCCOCCNC(=O)CC[C@H](NC(=O)CCCCCCCCCCCCCCCCC(=O)O)C(=O)O)NC(=O)[C@H](CCCN)NC(=O)[C@H](CC(=O)O)NC(=O)[C@H](CC(C)C)NC(=O)[C@](C)(CC(C)C)NC(=O)[C@@H](NC(=O)[C@H](CO)NC(=O)[C@H](CC(C)C)NC(=O)[C@H](CC(=O)O)NC(=O)[C@H](CO)NC(=O)[C@@H](NC(=O)[C@](C)(Cc1ccccc1F)NC(=O)[C@@H](NC(=O)CNC(=O)[C@H](CCC(=O)O)NC(=O)C(C)(C)NC(=O)[C@@H](N)Cc1ccc(O)cc1)[C@@H](C)O)[C@@H](C)O)[C@@H](C)CC)[C@@H](C)CC)C(=O)N[C@@H](CCC(=O)O)C(=O)NCC(=O)NCC(=O)N1CCC[C@H]1C(=O)N[C@@H](CO)C(=O)N[C@@H](CO)C(=O)NCC(=O)N[C@@H](C)C(=O)N1CCC[C@H]1C(=O)N1CCC[C@H]1C(=O)N1CCC[C@H]1C(=O)N[C@@H](CO)C(N)=O` [Example 244] (H-Y[Aib]EGT[αMePhe(2-F)]TSDLSI[αMeL]LD[Orn]K([AEEA-AEEA-γGlu-C18 diacid])AQ[Aib]AFI[dE][αMeY]LIEGGPSSGAPPPS-NH2), the Ki (human Gcg receptor) was 87.8 nM, the EC50 [1] was 0.0225 nM and the Ki (human GIP receptor) was 0.0308 nM. The EC50 [2] was 0.0252 nM and the Ki (human GLP-1R) was 0.82 nM.
In the case of `CC[C@H](C)[C@H](NC(=O)[C@H](CC(C)C)NC(=O)[C@](C)(Cc1ccc(O)cc1)NC(=O)[C@@H](CCC(=O)O)NC(=O)[C@@H](NC(=O)[C@H](Cc1ccccc1)NC(=O)[C@H](C)NC(=O)C(C)(C)NC(=O)[C@H](CCC(N)=O)NC(=O)[C@H](C)NC(=O)[C@H](CCCCNC(=O)COCCOCCNC(=O)COCCOCCNC(=O)CC[C@H](NC(=O)CCCCCCCCCCCCCCCCC(=O)O)C(=O)O)NC(=O)[C@H](CCCN)NC(=O)[C@H](CC(=O)O)NC(=O)[C@H](CC(C)C)NC(=O)[C@](C)(CC(C)C)NC(=O)[C@@H](NC(=O)[C@H](CO)NC(=O)[C@H](C)NC(=O)[C@H](CC(=O)O)NC(=O)[C@H](CO)NC(=O)[C@@H](NC(=O)[C@](C)(Cc1ccccc1F)NC(=O)[C@@H](NC(=O)CNC(=O)[C@H](CCC(=O)O)NC(=O)C(C)(C)NC(=O)[C@@H](N)Cc1ccc(O)cc1)[C@@H](C)O)[C@@H](C)O)[C@@H](C)CC)[C@@H](C)CC)C(=O)N[C@@H](CCC(=O)O)C(=O)NCC(=O)NCC(=O)N1CCC[C@H]1C(=O)N[C@@H](CO)C(=O)N[C@@H](CO)C(=O)NCC(=O)N[C@@H](C)C(=O)N1CCC[C@H]1C(=O)N1CCC[C@H]1C(=O)N1CCC[C@H]1C(=O)N[C@@H](CO)C(N)=O` [Example 246] (H-Y[Aib]EGT[αMePhe(2-F)]TSDASI[αMeL]LD[Orn]K([AEEA-AEEA-γGlu-C18 diacid])AQ[Aib]AFI[dE][αMeY]LIEGGPSSGAPPPS-NH2), the Ki (human Gcg receptor) is reported as over 1010 nM, the EC50 [1] is reported as 0.0258 nM and the Ki (human GIP receptor) is reported as 0.0509 nM. It also gave an EC50 [2] of 0.0144 nM and a Ki (human GLP-1R) of 0.812 nM.
In the case of `CC[C@H](C)[C@H](NC(=O)[C@H](CC(C)C)NC(=O)[C@H](Cc1ccc(O)cc1)NC(=O)[C@@H](CCC(=O)O)NC(=O)[C@@H](NC(=O)[C@H](Cc1ccccc1)NC(=O)[C@H](CCC(=O)O)NC(=O)C(C)(C)NC(=O)[C@H](CCC(N)=O)NC(=O)[C@H](C)NC(=O)[C@H](CCCCNC(=O)COCCOCCNC(=O)COCCOCCNC(=O)CC[C@H](NC(=O)CCCCCCCCCCCCCCCCC(=O)O)C(=O)O)NC(=O)[C@H](CCCN)NC(=O)[C@H](CC(=O)O)NC(=O)[C@H](CC(C)C)NC(=O)C(C)(C)NC(=O)[C@@H](NC(=O)[C@H](CO)NC(=O)[C@H](Cc1ccc(O)cc1)NC(=O)[C@H](CC(=O)O)NC(=O)[C@H](CO)NC(=O)[C@@H](NC(=O)C(C)(Cc1ccccc1F)NC(=O)[C@@H](NC(=O)CNC(=O)[C@H](CCC(=O)O)NC(=O)C(C)(C)NC(=O)[C@@H](N)Cc1ccc(O)cc1)[C@@H](C)O)[C@@H](C)O)[C@@H](C)CC)[C@@H](C)CC)C(=O)N[C@@H](CCC(=O)O)C(=O)NCC(=O)NCC(=O)N1CCC[C@H]1C(=O)N[C@@H](CO)C(=O)N[C@@H](CO)C(=O)NCC(=O)N[C@@H](C)C(=O)N1CCC[C@H]1C(=O)N1CCC[C@H]1C(=O)N1CCC[C@H]1C(=O)N[C@@H](CO)C(N)=O` (stereo partly shown) [Example 247], the Ki (human Gcg receptor) is reported as over 1100 nM, the EC50 [1] is reported as 0.0622 nM and the Ki (human GIP receptor) is reported as over 55.1 nM. For the same compound, the EC50 [2] was 0.0491 nM and the Ki (human GLP-1R) was 4.39 nM.

Reference: US12252524B2, “GIP/GLP1 co-agonist compounds” (Eli Lilly and Company, priority 2018, dated 2025)
